Laboratory results reported in ChEMBL document CHEMBL1143342, “Death receptor 5 targeting activity-guided isolation of isoflavones from Millettia brandisiana and Ardisia colorata and evaluation of ability to induce TRAIL-mediated apoptosis” (2009).
Activity calls are given as the source filed them. The calls are words filed in the database; no cut-off is given here.

Legend:
DLD-1 = experiment: Induction of DR5 promoter activity in SacI gene expressing human DLD1 cells at 17.5 uM after 24 hrs by luminescence assay; assay type: functional
AGS [1] = experiment: Induction of apoptosis in TRAIL-resistant human AGS cells assessed as late apoptotic cells at 40 uM after 24 hrs using annexin-V-FITC/propidium iodide staining by flow cytometry; assay type: functional
AGS [2] = experiment: Induction of apoptosis in TRAIL-resistant human AGS cells assessed as early apoptotic cells at 40 uM after 24 hrs using annexin-V-FITC/propidium iodide staining by flow cytometry; assay type: functional
AGS [3] = experiment: Induction of apoptosis in TRAIL-resistant human AGS cells assessed as late apoptotic cells at 50 uM after 24 hrs using annexin-V-FITC/propidium iodide staining by flow cytometry; assay type: functional
AGS [4] = experiment: Induction of apoptosis in TRAIL-resistant human AGS cells assessed as early apoptotic cells at 50 uM after 24 hrs using annexin-V-FITC/propidium iodide staining by flow cytometry; assay type: functional
AGS [5] = experiment: Induction of apoptosis in TRAIL-resistant human AGS cells assessed as late apoptotic cells at 60 uM after 24 hrs using annexin-V-FITC/propidium iodide staining by flow cytometry; assay type: functional
AGS [6] = experiment: Induction of apoptosis in TRAIL-resistant human AGS cells assessed as early apoptotic cells at 60 uM after 24 hrs using annexin-V-FITC/propidium iodide staining by flow cytometry; assay type: functional
AGS [7] = experiment: Sensitization of TRAIL-induced apoptosis in TRAIL-resistant human AGS cells assessed as late apoptotic cells at 40 uM after 24 hrs using annexin-V-FITC/propidium iodide staining by flow cytometry; assay type: functional
AGS [8] = experiment: Sensitization of TRAIL-induced apoptosis in TRAIL-resistant human AGS cells assessed as early apoptotic cells at 40 uM after 24 hrs using annexin-V-FITC/propidium iodide staining by flow cytometry; assay type: functional
AGS [9] = experiment: Sensitization of TRAIL-induced apoptosis in TRAIL-resistant human AGS cells assessed as late apoptotic cells at 50 uM after 24 hrs using annexin-V-FITC/propidium iodide staining by flow cytometry; assay type: functional
AGS [10] = experiment: Sensitization of TRAIL-induced apoptosis in TRAIL-resistant human AGS cells assessed as early apoptotic cells at 50 uM after 24 hrs using annexin-V-FITC/propidium iodide staining by flow cytometry; assay type: functional
AGS [11] = experiment: Sensitization of TRAIL-induced apoptosis in TRAIL-resistant human AGS cells assessed as late apoptotic cells at 60 uM after 24 hrs using annexin-V-FITC/propidium iodide staining assay; assay type: functional
AGS [12] = experiment: Sensitization of TRAIL-induced apoptosis in TRAIL-resistant human AGS cells assessed as early apoptotic cells at 60 uM after 24 hrs using annexin-V-FITC/propidium iodide staining by flow cytometry; assay type: functional
AGS [13] = experiment: Sensitization of TRAIL-induced apoptosis in TRAIL-resistant human AGS cells assessed as accumulation at sub-G1 phase at 60 uM after 24 hrs using annexin-V-FITC/propidium iodide staining by flow cytometry in presence of DR5/Fc chimeric protein; assay type: functional, cell-based
AGS [14] = experiment: Induction of TRAIL-induced apoptosis in TRAIL-resistant human AGS cells assessed as increase in caspase 8 activity after 12 hrs by luminescence assay; assay type: functional, cell-based
AGS [15] = experiment: Induction of TRAIL-induced apoptosis in TRAIL-resistant human AGS cells assessed as increase in caspase 3/7 activity after 24 hrs by luminescence assay; assay type: functional, cell-based
AGS [16] = experiment: Induction of DR5 mRNA expression in TRAIL-resistant human AGS cells by RT-PCR; assay type: functional, cell-based
AGS [17] = experiment: Induction of DR5 protein expression in TRAIL-resistant human AGS cells after 24 hrs by Western blot analysis; assay type: functional, cell-based
AGS [18] = experiment: Sensitization of TRAIL-induced apoptosis in TRAIL-resistant human AGS cells assessed as increase in DR5 expression; assay type: functional, cell-based

Compound | Activity (DLD-1) | Activity (AGS [1]) | Activity (AGS [2]) | Activity (AGS [3]) | Activity (AGS [4]) | Activity (AGS [5]) | Activity (AGS [6]) | Activity (AGS [7]) | Activity (AGS [8]) | Activity (AGS [9]) | Activity (AGS [10]) | Activity (AGS [11]) | Activity (AGS [12]) | Activity (AGS [13]) | Activity (AGS [14]) | Activity (AGS [15]) | Activity (AGS [16]) | Activity (AGS [17]) | Activity (AGS [18])
COc1ccc(-c2coc3cc(O)ccc3c2=O)c(O)c1 [XENOGNOSIN B] | 2.5 | – | – | – | – | – | – | – | – | – | – | – | – | – | – | – | – | – | –
COc1cc(-c2coc3c4c(cc(O)c3c2=O)OC(C)(C)C=C4)c(OC)cc1O | – | 5.6% | 9.6% | 3.9% | 15.2% | 6.9% | 17.4% | 12.9% | 12.1% | 19.5% | 16.3% | 44.1% | 23.4% | inactive | Dose-dependent effect | Dose-dependent effect | Dose-dependent effect | Dose-dependent effect | Active
